# Read-outs that look alike come from different tables or passages of the source.
# Tests used:
# [1] = test system: Zymoseptoria tritici progeny isolates; format: cell-based; conditions: for phenotype flag S (sensitive): 1 = sensitive; for Phenotype sensitive (S) flag: fluopyram 10 mg.L^-1 agar, 1 in S column; for phenotype flag, sensitive (S): growth on fluopyram 10 mg.L^-1 agar; for phenotype flag, sensitive (S) / Phenotyping Growth Fluopyram 10ppm Sensitive: 1 = scored sensitive; for Phenotype scored sensitive (S): agar growth on fluopyram 10 mg.L^-1, 1 = scored in this class
# [2] = molecular target: SQR (SDHC) of D024 SDHC3 KO mitochondria (Zymoseptoria tritici, UniProt F9X9V6+F9XH52+O42772); assay: Succinate-quinone (SQR) SDHI sensitivity assay on purified mitochondria, 06STD024 SDHC3 KO; format: biochemical
# Outline: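 Mitochondria purified from each strain were used for succinate:ubiquinone/DCPIP reductase assays, with suspensions adjusted to similar initial velocity (1 OD595nm hour^-1). Inhibitor was tested at 0.047 nM–50 μM in 4x steps (11 concentrations plus DMSO). IC50 came from non-linear fits of absorbance slopes (OD/min) against log concentration.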
# SQR (SDHC) of D024 SDHC3 KO mitochondria, sequence (F9XH52 44-187): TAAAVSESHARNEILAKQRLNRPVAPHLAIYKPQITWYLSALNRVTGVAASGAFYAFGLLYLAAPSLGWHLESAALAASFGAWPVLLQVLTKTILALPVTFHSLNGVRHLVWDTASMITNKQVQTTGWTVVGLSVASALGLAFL
# SQR (SDHC) of D024 SDHC3 KO mitochondria, sequence (O42772 19-297): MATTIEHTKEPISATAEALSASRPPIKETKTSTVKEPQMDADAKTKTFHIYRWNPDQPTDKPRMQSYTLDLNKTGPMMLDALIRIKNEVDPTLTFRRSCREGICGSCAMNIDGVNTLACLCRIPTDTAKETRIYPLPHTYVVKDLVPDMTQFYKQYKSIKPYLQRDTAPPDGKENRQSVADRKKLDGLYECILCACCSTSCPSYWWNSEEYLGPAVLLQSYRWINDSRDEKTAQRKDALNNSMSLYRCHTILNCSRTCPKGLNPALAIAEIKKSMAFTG
# SQR (SDHC) of D024 SDHC3 KO mitochondria, sequence (F9X9V6 1-193): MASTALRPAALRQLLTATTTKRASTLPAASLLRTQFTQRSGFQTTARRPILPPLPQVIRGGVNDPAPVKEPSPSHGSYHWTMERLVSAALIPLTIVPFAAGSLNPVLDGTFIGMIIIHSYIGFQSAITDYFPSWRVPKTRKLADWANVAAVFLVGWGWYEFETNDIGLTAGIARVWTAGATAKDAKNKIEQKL
# SQR (SDHC) of D024 SDHC3 KO mitochondria, sequence (F9WWR1 29-643 partner): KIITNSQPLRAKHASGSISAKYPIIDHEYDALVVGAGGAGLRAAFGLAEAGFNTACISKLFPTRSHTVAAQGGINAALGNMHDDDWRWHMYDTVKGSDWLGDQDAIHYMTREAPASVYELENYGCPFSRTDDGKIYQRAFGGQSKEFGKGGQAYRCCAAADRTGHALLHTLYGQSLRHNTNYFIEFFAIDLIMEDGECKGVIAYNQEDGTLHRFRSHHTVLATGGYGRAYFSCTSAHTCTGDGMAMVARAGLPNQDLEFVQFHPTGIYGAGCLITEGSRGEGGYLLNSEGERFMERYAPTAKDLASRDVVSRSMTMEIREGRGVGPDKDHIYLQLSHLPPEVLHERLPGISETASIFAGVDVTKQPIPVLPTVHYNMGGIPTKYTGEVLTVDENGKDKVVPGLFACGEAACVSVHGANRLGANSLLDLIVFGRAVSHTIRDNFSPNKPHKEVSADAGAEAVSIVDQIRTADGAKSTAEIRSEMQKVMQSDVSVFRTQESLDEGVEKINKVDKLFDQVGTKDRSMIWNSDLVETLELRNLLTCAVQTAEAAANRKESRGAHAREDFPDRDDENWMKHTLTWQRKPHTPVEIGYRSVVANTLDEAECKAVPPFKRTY
smiles,measurement,setting,value
O=C(NCCc1ncc(C(F)(F)F)cc1Cl)c1ccccc1C(F)(F)F [Fluopyram],phenotype flag S (sensitive),"[1]; progeny isolate 25, cross IPO323XD024",1
same,phenotype flag S (sensitive),"[1]; progeny isolate 27, cross IPO323XD024",1
same,phenotype flag S (sensitive),"[1]; progeny isolate 28, cross IPO323XD024",1
same,phenotype flag S (sensitive),"[1]; progeny isolate 31, cross IPO323XD024",1
same,phenotype flag S (sensitive),"[1]; progeny isolate 32, cross IPO323XD024",1
same,phenotype flag S (sensitive),"[1]; progeny isolate 34, cross IPO323XD024",1
same,phenotype flag S (sensitive),"[1]; progeny isolate 37, cross IPO323XD024",1
same,phenotype flag S (sensitive),"[1]; progeny isolate 39, cross IPO323XD024",1
same,phenotype flag S (sensitive),"[1]; progeny isolate 40, cross IPO323XD024",1
same,phenotype flag S (sensitive),"[1]; progeny isolate 43, cross IPO323XD024",1
same,phenotype flag S (sensitive),"[1]; progeny isolate 46, cross IPO323XD024",1
same,phenotype flag S (sensitive),"[1]; progeny isolate 49, cross IPO323XD024",1
same,phenotype flag S (sensitive),"[1]; progeny isolate 50, cross IPO323XD024",1
same,phenotype flag S (sensitive),"[1]; progeny isolate 51, cross IPO323XD024",1
same,phenotype flag S (sensitive),"[1]; progeny isolate 53, cross IPO323XD024",1
same,phenotype flag S (sensitive),"[1]; progeny isolate 54, cross IPO323XD024",1
same,phenotype flag S (sensitive),"[1]; progeny isolate 55, cross IPO323XD024",1
same,phenotype flag S (sensitive),"[1]; progeny isolate 56, cross IPO323XD024",1
same,phenotype flag S (sensitive),"[1]; progeny isolate 57, cross IPO323XD024",1
same,phenotype flag S (sensitive),"[1]; progeny isolate 59, cross IPO323XD024",1
same,phenotype flag S (sensitive),"[1]; progeny isolate 60, cross IPO323XD024",1
same,phenotype flag S (sensitive),"[1]; progeny isolate 62, cross IPO323XD024",1
same,phenotype flag S (sensitive),"[1]; progeny isolate 63, cross IPO323XD024",1
same,phenotype flag S (sensitive),"[1]; progeny isolate 65, cross IPO323XD024",1
same,"phenotype scored sensitive (S), flag 1","[1]; progeny isolate 67, cross IPO323XD024, fluopyram 10 mg.L^-1 agar",1
same,"phenotype scored sensitive (S), flag 1","[1]; progeny isolate 71, cross IPO323XD024, fluopyram 10 mg.L^-1 agar",1
same,"phenotype scored sensitive (S), flag 1","[1]; progeny isolate 72, cross IPO323XD024, fluopyram 10 mg.L^-1 agar",1
same,"phenotype scored sensitive (S), flag 1","[1]; progeny isolate 75, cross IPO323XD024, fluopyram 10 mg.L^-1 agar",1
same,"phenotype scored sensitive (S), flag 1","[1]; progeny isolate 77, cross IPO323XD024, fluopyram 10 mg.L^-1 agar",1
same,"phenotype scored sensitive (S), flag 1","[1]; progeny isolate 78, cross IPO323XD024, fluopyram 10 mg.L^-1 agar",1
same,"phenotype scored sensitive (S), flag 1","[1]; progeny isolate 82, cross IPO323XD024, fluopyram 10 mg.L^-1 agar",1
same,"phenotype scored sensitive (S), flag 1","[1]; progeny isolate 83, cross IPO323XD024, fluopyram 10 mg.L^-1 agar",1
same,"phenotype scored sensitive (S), flag 1","[1]; progeny isolate 84, cross IPO323XD024, fluopyram 10 mg.L^-1 agar",1
same,"phenotype scored sensitive (S), flag 1","[1]; progeny isolate 88, cross IPO323XD024, fluopyram 10 mg.L^-1 agar",1
same,"phenotype scored sensitive (S), flag 1","[1]; progeny isolate 89, cross IPO323XD024, fluopyram 10 mg.L^-1 agar",1
same,"phenotype scored sensitive (S), flag 1","[1]; progeny isolate 90, cross IPO323XD024, fluopyram 10 mg.L^-1 agar",1
same,"phenotype scored sensitive (S), flag 1","[1]; progeny isolate 91, cross IPO323XD024, fluopyram 10 mg.L^-1 agar",1
same,"phenotype scored sensitive (S), flag 1","[1]; progeny isolate 92, cross IPO323XD024, fluopyram 10 mg.L^-1 agar",1
same,"phenotype scored sensitive (S), flag 1","[1]; progeny isolate 102, cross IPO323XD024, fluopyram 10 mg.L^-1 agar",1
same,"phenotype scored sensitive (S), flag 1","[1]; progeny isolate 103, cross IPO323XD024, fluopyram 10 mg.L^-1 agar",1
same,"phenotype scored sensitive (S), flag 1","[1]; progeny isolate 106, cross IPO323XD024, fluopyram 10 mg.L^-1 agar",1
same,"phenotype scored sensitive (S), flag 1","[1]; progeny isolate 107, cross IPO323XD024, fluopyram 10 mg.L^-1 agar",1
same,Phenotype sensitive (S) flag,[1]; progeny isolate 150 of cross IPO323XD024,1
same,Phenotype sensitive (S) flag,[1]; progeny isolate 151 of cross IPO323XD024,1
same,Phenotype sensitive (S) flag,[1]; progeny isolate 152 of cross IPO323XD024,1
same,Phenotype sensitive (S) flag,[1]; progeny isolate 153 of cross IPO323XD024,1
same,Phenotype sensitive (S) flag,[1]; progeny isolate 155 of cross IPO323XD024,1
same,Phenotype sensitive (S) flag,[1]; progeny isolate 156 of cross IPO323XD024,1
same,Phenotype sensitive (S) flag,[1]; progeny isolate 158 of cross IPO323XD024,1
same,Phenotype sensitive (S) flag,[1]; progeny isolate 161 of cross IPO323XD024,1
same,Phenotype sensitive (S) flag,[1]; progeny isolate 162 of cross IPO323XD024,1
same,Phenotype sensitive (S) flag,[1]; progeny isolate 163 of cross IPO323XD024,1
same,Phenotype sensitive (S) flag,[1]; progeny isolate 166 of cross IPO323XD024,1
same,Phenotype sensitive (S) flag,[1]; progeny isolate 168 of cross IPO323XD024,1
same,Phenotype sensitive (S) flag,[1]; progeny isolate 169 of cross IPO323XD024,1
same,Phenotype sensitive (S) flag,[1]; progeny isolate 173 of cross IPO323XD024,1
same,Phenotype sensitive (S) flag,[1]; progeny isolate 174 of cross IPO323XD024,1
same,Phenotype sensitive (S) flag,[1]; progeny isolate 175 of cross IPO323XD024,1
same,Phenotype sensitive (S) flag,[1]; progeny isolate 176 of cross IPO323XD024,1
same,Phenotype sensitive (S) flag,[1]; progeny isolate 177 of cross IPO323XD024,1
same,Phenotype sensitive (S) flag,[1]; progeny isolate 182 of cross IPO323XD024,1
same,Phenotype sensitive (S) flag,[1]; progeny isolate 184 of cross IPO323XD024,1
same,Phenotype sensitive (S) flag,[1]; progeny isolate 185 of cross IPO323XD024,1
same,"phenotype flag, sensitive (S)","[1]; progeny isolate 192, cross IPO323XD024",1
same,"phenotype flag, sensitive (S)","[1]; progeny isolate 193, cross IPO323XD024",1
same,"phenotype flag, sensitive (S)","[1]; progeny isolate 195, cross IPO323XD024",1
same,"phenotype flag, sensitive (S)","[1]; progeny isolate 197, cross IPO323XD024",1
same,"phenotype flag, sensitive (S)","[1]; progeny isolate 201, cross IPO323XD024",1
same,"phenotype flag, sensitive (S)","[1]; progeny isolate 207, cross IPO323XD024",1
same,"phenotype flag, sensitive (S)","[1]; progeny isolate 209, cross IPO323XD024",1
same,"phenotype flag, sensitive (S)","[1]; progeny isolate 210, cross IPO323XD024",1
same,"phenotype flag, sensitive (S)","[1]; progeny isolate 211, cross IPO323XD024",1
same,"phenotype flag, sensitive (S)","[1]; progeny isolate 215, cross IPO323XD024",1
same,"phenotype flag, sensitive (S)","[1]; progeny isolate 217, cross IPO323XD024",1
same,"phenotype flag, sensitive (S)","[1]; progeny isolate 218, cross IPO323XD024",1
same,"phenotype flag, sensitive (S)","[1]; progeny isolate 220, cross IPO323XD024",1
same,"phenotype flag, sensitive (S)","[1]; progeny isolate 221, cross IPO323XD024",1
same,"phenotype flag, sensitive (S)","[1]; progeny isolate 223, cross IPO323XD024",1
same,"phenotype flag, sensitive (S)","[1]; progeny isolate 224, cross IPO323XD024",1
same,"phenotype flag, sensitive (S)","[1]; progeny isolate 225, cross IPO323XD024",1
same,"phenotype flag, sensitive (S)","[1]; progeny isolate 227, cross IPO323XD024",1
same,"phenotype flag, sensitive (S)","[1]; progeny isolate 228, cross IPO323XD024",1
same,"phenotype flag, sensitive (S)","[1]; progeny isolate 229, cross IPO323XD024",1
same,Phenotype scored sensitive (S),[1]; progeny isolate 230 of cross IPO323 x D024,1
same,Phenotype scored sensitive (S),[1]; progeny isolate 235 of cross IPO323 x D024,1
same,Phenotype scored sensitive (S),[1]; progeny isolate 237 of cross IPO323 x D024,1
same,Phenotype scored sensitive (S),[1]; progeny isolate 238 of cross IPO323 x D024,1
same,Phenotype scored sensitive (S),[1]; progeny isolate 239 of cross IPO323 x D024,1
same,Phenotyping Growth Fluopyram 10ppm Sensitive,"[1]; progeny strain 3, cross IPO323XD024",1
same,Phenotyping Growth Fluopyram 10ppm Sensitive,"[1]; progeny strain 10, cross IPO323XD024",1
same,Phenotyping Growth Fluopyram 10ppm Sensitive,"[1]; progeny strain 13, cross IPO323XD024",1
same,Phenotyping Growth Fluopyram 10ppm Sensitive,"[1]; progeny strain 14, cross IPO323XD024",1
same,Phenotyping Growth Fluopyram 10ppm Sensitive,"[1]; progeny strain 16, cross IPO323XD024",1
same,Phenotyping Growth Fluopyram 10ppm Sensitive,"[1]; progeny strain 17, cross IPO323XD024",1
same,Phenotyping Growth Fluopyram 10ppm Sensitive,"[1]; progeny strain 18, cross IPO323XD024",1
same,Phenotyping Growth Fluopyram 10ppm Sensitive,"[1]; progeny strain 19, cross IPO323XD024",1
same,Phenotyping Growth Fluopyram 10ppm Sensitive,"[1]; progeny strain 20, cross IPO323XD024",1
same,Phenotyping Growth Fluopyram 10ppm Sensitive,"[1]; progeny strain 21, cross IPO323XD024",1
same,Phenotyping Growth Fluopyram 10ppm Sensitive,"[1]; progeny strain 23, cross IPO323XD024",1
same,Phenotyping Growth Fluopyram 10ppm Sensitive,"[1]; strain D024 (parent), cross IPO323XD024, 0 = not",0
same,Phenotyping Growth Fluopyram 10ppm Sensitive,"[1]; strain IPO323 (parent), cross IPO323XD024, 0 = not",1
same,"RF (resistance factor), D024 SDHC3 KO (SDHC)",[2]; IC50 ratio compared to IPO323 values,0.8
same,IC50,"[2]; mitochondria of 06STD024 ZtSDHC3 deletion mutant, mean of three ± SD",10.1 ± 2 nM
